Experiment [1] concerns colon CSCs. The experiment in a line: kinase inhibitor library screening, ATP-based viability assay. Type of experiment: cell-based, human. The procedure:
A flowchart showing the steps of the screenings performed on colon CSCs, is depicted in FIG. 5. Before treatment with inhibitors, colon CSCs undergo trypsin/EDTA dissociation in order to be consistently plated into 96-well microtiter plates. After 48 h cells recover from dissociation and form spheroids again. Inhibitors are subsequently added to the cells as single agents while ATP-based-viability assay are performed after another 48 h.
Viability controls are cells treated with DMSO whereas staurosporin-treated cells are positive controls of death.
(§1) Cells were incubated at 37° C. for a variable time, depending on the size and on the sensitivity of each colon CSC line, until single cell suspension was achieved. Cells were then washed once in fresh medium and plated into 96-well microtiter plates in 80 μL volume. The number of cells plated ranged from 2000 to 5000 per well. Drugs were added after 48 h by dispensing each well with 20 μL of medium containing 5× concentrated compounds. We purchased the kinase inhibitor library from Enzo Life Sciences International, Inc (formerly BIOMOL International, L.P., PA, USA) and used each single inhibitor at a final […] concentration. As a control DMSO was added to cells at a final concentration of 0.1% (v/v).
Measure of cell viability was performed using CelltiterGlo® luminescent assay (Promega Corporation, Madison, Wis., USA) and luminescence was recorded on Beckman Coulter DTX880 multimode reader (Beckman Coulter Inc., Fullerton, Calif., USA) with an integration time of 100 ms.
Statistical analysis and IC50 calculations were performed with the aid of Microsoft Excel (Microsoft Corporation, www.microsoft.com) and GraphPad Prism version 4.00 for Windows, (GraphPad Software, San Diego, Calif., www.graphpad.com) while hierarchical clustering was performed with TMev v4.3.01 [10]. Normalized viability represents the signal intensity of each replicate divided by the average of single plate DMSO controls (in percent). Dunnett's post-test was performed on at least three independent experiments for each colon CSC line to calculate statistical significance versus DMSO controls. P values were subsequently clustered by using Euclidean distance as metric and complete linkage as a linkage method.

For experiment [2], the target named is casein kinase I and PKA, insulin receptor kinase fragment. Conditions: range over casein kinase I; cited from earlier work.
Experiment [3] has as its system CTSC#85 (TRAIL-resistant colon CSC line). Nature of the experiment: drug combination experiment. Conditions: 24 h, TRAIL IC50/17-AAG IC50. Type of experiment: cell-based, human. As for the experimental part:
Normalized viability at 24 h is plotted against drug combinations. […] Recombinant human Killer TRAIL was purchased from Alexis (San Diego, Calif., USA) while Geldanamycin, 17-AAG and 17-DMAG were purchased from Calbiochem (Nottingham, UK). All agents were diluted into fresh medium at the specified concentrations. Measure of cell viability was performed using CelltiterGlo® luminescent assay (Promega Corporation, Madison, Wis., USA) and luminescence was recorded on Beckman Coulter DTX880 multimode reader (Beckman Coulter Inc., Fullerton, Calif., USA) with an integration time of 100 ms.

Experiment [4] concerns colon cancer cell lines. The note with it: commercial (non-stem) cell lines, colon and lung; cited from earlier work.
For experiment [5], the system named is CTSC#85. Nature of the experiment: dose-response analysis, viability (CelltiterGlo). Type of experiment: cell-based, human. The note with it: escalating doses. (ATP-based viability assays read luminescence as a measure of living cells.)
In experiment [6] the target is platelet-derived growth factor receptor tyrosine kinase (Homo sapiens, UniProt P09619). The note with it: cited from earlier work.
The target in experiment [7] is human PDGF b-receptors (Homo sapiens, UniProt P09619). The note with it: cited from earlier work.
The target of experiment [8] is human PDGF a-receptors (Homo sapiens, UniProt P16234). The note with it: cited from earlier work.
The target in experiment [9] is c-kit (Homo sapiens, UniProt P10721). Conditions: at 5 μM; cited from earlier work.
Experiment [10] deals with TNF-a-inducible phosphorylation of IkBa. The note with it: cited from earlier work.
Experiment [11] addresses protein kinase G. Conditions: cited from earlier work.
In experiment [12] the target is myosin light chain kinase. The note with it: cited from earlier work.
In experiment [13] the target is rat brain CaM kinase II. The note with it: cited from earlier work.
The target in experiment [14] is CaM kinase II. The note with it: cited from earlier work.
Experiment [15] addresses T1, GSK-3b immunoprecipitates (Homo sapiens, UniProt P49841).
T1 construct: host or cells: immunoprecipitates
Conditions: cited from earlier work.

Experiment [16] has as its system GSK-3 in primary adipocytes. Conditions: cited from earlier work.
Experiment [17] has as its target protein kinase A (Homo sapiens, UniProt P17612). Conditions: cited from earlier work.
Experiment [18] has as its target protein kinase C (PKC). Conditions: cited from earlier work.
Experiment [19] has as its target PKCd (Homo sapiens, UniProt Q05655). The note with it: cited from earlier work.
Experiment [20] relates to PKCe, PKCh, and PKCz. Conditions: reduced inhibitory activity; cited from earlier work.
Experiment [21] addresses CaM kinase III (Homo sapiens, UniProt O00418). Conditions: cited from earlier work.
The test system of experiment [22] is PKCa, PKCb, and PKCg isoforms. The note with it: cited from earlier work.
Experiment [23] concerns the target SAPK2a/p38a (Homo sapiens, UniProt Q16539). The note with it: cited from earlier work.
In experiment [24] the target is SAPK2b/p38b2 (Homo sapiens, UniProt Q15759). The note with it: cited from earlier work.
For experiment [25], the target named is c-Raf (Homo sapiens, UniProt P04049). The note with it: selectivity c-Raf over B-Raf; cited from earlier work.
Experiment [26] concerns many other protein kinases. Conditions: even at 50 μM; cited from earlier work.
For experiment [27], the target named is Cdk5 (Homo sapiens, UniProt Q00535). The note with it: cited from earlier work.
In experiment [28] the test system is colon CSCs. Nature of the experiment: dose-response analysis on four colon CSCs. Type of experiment: cell-based, human. The note with it: single agent, escalating doses, four colon CSC lines. As for the experimental part:
as §1, with “(v/v). Recombinant human Killer TRAIL was purchased from Alexis (San Diego, Calif., USA) while Geldanamycin, 17-AAG and 17-DMAG were purchased from Calbiochem (Nottingham, UK). All agents were diluted into fresh medium at the specified concentrations. Measure of cell viability was performed using CelltiterGlo® luminescent assay (Promega Corporation, Madison, Wis., USA) and luminescence was recorded on Beckman Coulter DTX880 multimode reader (Beckman Coulter Inc., Fullerton, Calif., USA) with an integration time of 100 ms.” for “(v/v).”

The mark [29] stands for this setting: single agent, 5 μM, viability after 48 h, four colon CSC lines.

Entries after “also recorded” stand apart in the source; their conditions may differ. Read-outs that look alike come from different tables or passages of the source.

Chain of Cdk5 (Q00535 whole entry, species assumed): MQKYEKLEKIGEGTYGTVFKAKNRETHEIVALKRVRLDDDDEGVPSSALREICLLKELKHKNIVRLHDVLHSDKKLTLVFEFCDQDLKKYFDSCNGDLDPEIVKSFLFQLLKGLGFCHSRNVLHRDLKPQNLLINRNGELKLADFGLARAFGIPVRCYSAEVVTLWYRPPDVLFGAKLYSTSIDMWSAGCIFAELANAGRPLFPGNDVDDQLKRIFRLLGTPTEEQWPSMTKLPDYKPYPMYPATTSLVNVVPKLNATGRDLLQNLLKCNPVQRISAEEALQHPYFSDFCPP
Chain of Cdk5 (Q15078 99-307 partner limits assumed, species assumed): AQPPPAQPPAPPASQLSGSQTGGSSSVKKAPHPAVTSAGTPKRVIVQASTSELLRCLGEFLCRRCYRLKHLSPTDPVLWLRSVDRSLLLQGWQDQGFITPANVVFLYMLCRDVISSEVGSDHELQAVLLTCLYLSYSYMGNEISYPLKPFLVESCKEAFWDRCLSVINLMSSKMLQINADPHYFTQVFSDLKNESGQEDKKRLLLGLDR
Chain of SAPK2a/p38a (Q16539 whole entry): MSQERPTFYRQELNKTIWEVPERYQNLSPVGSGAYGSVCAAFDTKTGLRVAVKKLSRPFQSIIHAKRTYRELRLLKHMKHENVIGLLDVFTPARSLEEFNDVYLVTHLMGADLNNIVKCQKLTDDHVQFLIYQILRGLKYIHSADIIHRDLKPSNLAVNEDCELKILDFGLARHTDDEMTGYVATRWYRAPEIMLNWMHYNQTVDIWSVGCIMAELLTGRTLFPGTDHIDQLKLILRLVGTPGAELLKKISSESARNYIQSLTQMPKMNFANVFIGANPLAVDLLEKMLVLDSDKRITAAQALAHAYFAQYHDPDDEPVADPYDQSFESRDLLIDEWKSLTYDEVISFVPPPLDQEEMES
Chain of c-Raf (P04049 whole entry): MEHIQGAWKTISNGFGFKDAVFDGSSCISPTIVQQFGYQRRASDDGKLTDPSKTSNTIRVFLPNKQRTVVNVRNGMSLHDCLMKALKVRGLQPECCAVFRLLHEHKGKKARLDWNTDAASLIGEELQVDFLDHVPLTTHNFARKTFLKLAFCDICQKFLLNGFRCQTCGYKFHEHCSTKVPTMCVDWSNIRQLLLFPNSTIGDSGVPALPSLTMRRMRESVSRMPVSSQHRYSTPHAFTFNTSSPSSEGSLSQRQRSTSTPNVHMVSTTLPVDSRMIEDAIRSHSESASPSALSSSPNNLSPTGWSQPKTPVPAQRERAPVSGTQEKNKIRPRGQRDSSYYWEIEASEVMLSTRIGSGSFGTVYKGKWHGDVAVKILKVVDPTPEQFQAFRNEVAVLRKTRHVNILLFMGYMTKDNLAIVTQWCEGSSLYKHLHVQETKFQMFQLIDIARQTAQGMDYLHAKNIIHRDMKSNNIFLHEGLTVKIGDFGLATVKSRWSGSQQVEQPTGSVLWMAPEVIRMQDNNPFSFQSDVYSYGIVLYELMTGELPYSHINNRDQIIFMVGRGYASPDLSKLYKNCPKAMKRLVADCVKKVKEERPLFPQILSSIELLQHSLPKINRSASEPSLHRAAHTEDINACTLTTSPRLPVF
Chain of human PDGF a-receptors (P16234 24-1089): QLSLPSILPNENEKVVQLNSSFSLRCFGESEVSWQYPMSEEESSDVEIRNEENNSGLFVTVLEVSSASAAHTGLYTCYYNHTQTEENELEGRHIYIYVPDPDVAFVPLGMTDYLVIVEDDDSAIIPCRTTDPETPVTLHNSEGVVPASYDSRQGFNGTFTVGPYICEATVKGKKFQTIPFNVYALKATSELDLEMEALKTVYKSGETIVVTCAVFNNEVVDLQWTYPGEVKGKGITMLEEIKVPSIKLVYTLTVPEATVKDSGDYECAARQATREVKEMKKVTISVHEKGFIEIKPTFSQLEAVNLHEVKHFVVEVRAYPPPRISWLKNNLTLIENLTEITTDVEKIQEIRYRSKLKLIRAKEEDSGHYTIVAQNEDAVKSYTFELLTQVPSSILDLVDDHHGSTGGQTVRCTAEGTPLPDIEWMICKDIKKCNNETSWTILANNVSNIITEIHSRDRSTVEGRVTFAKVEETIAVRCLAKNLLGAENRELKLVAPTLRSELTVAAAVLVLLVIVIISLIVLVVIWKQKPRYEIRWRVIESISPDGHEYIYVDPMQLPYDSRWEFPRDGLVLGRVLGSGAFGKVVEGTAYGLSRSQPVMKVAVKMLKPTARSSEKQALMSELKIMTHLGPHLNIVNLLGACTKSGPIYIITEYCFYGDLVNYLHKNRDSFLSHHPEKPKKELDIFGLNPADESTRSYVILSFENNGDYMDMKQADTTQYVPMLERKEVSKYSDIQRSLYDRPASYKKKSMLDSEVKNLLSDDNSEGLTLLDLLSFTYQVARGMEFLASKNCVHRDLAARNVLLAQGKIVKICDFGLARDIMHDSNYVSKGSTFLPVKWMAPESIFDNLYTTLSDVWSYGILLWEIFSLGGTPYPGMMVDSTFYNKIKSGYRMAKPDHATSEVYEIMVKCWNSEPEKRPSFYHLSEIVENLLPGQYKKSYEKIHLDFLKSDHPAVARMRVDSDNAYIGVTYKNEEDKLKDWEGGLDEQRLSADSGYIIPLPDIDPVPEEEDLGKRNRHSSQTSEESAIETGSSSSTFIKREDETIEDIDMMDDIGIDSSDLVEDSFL
Chain of PKCd (Q05655 whole entry, species assumed): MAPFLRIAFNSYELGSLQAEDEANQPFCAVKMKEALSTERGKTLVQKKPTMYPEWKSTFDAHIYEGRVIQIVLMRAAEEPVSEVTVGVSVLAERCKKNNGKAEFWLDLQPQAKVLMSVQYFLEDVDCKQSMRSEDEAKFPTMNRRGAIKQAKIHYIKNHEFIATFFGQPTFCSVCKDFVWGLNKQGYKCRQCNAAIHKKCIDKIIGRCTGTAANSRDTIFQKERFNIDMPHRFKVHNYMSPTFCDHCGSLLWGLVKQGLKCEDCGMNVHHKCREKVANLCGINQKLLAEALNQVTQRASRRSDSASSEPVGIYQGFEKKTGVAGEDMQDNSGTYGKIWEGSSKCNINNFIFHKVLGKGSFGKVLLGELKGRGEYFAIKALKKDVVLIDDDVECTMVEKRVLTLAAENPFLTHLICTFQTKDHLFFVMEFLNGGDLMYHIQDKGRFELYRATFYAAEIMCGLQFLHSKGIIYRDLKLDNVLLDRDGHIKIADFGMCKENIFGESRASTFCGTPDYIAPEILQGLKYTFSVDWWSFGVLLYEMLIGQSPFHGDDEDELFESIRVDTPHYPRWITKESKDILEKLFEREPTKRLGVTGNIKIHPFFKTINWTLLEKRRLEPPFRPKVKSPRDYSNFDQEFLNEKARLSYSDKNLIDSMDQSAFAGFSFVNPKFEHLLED
T1 sequence (P49841 whole entry): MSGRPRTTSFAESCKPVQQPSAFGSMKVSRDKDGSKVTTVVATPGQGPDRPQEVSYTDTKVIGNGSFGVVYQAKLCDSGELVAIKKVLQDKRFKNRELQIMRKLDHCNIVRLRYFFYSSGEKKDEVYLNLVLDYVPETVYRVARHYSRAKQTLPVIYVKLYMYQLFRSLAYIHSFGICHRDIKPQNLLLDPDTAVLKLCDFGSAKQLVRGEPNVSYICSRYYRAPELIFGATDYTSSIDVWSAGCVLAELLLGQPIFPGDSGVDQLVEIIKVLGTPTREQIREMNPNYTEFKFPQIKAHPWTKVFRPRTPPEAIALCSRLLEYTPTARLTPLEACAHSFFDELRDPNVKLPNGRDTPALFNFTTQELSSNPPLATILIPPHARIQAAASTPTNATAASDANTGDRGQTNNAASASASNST
Chain of c-kit (P10721 26-976): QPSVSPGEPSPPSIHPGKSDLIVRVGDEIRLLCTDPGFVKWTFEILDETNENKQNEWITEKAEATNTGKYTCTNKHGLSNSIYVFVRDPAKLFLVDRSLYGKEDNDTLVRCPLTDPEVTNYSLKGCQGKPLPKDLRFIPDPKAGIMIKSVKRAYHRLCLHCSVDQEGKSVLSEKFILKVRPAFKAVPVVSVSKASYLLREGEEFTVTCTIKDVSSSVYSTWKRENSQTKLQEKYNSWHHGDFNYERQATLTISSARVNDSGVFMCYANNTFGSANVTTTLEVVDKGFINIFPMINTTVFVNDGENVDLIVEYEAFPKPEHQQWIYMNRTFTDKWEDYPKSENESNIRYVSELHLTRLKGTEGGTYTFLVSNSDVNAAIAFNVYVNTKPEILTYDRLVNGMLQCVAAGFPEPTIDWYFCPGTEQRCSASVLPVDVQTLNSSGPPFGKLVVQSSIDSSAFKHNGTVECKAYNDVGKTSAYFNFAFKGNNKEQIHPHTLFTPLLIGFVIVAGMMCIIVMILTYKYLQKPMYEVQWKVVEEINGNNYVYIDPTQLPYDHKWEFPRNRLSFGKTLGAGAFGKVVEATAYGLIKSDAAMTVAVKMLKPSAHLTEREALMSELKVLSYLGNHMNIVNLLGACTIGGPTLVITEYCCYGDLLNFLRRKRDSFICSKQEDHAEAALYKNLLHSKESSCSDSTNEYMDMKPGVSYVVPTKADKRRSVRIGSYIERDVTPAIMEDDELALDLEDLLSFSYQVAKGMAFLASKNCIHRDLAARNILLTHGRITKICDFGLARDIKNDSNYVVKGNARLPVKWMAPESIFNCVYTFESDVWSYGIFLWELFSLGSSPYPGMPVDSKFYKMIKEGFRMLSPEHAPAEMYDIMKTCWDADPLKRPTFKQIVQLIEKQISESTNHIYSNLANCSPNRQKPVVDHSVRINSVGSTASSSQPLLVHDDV
Chain of SAPK2b/p38b2 (Q15759 whole entry): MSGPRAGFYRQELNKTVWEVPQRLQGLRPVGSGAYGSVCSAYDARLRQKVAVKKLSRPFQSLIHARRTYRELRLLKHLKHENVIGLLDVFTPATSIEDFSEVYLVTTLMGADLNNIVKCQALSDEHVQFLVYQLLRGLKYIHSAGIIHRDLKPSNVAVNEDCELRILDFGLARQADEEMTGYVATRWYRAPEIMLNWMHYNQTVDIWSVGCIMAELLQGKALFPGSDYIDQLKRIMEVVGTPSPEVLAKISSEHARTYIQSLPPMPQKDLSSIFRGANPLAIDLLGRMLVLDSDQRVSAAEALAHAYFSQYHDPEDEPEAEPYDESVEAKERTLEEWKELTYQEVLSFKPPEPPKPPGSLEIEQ

Turning to `Nc1ncnc2c1c(I)cn2[C@@H]1O[C@H](CO)[C@@H](O)[C@H]1O` [5-Iodotubercidin], the “effect on colon CSC proliferation / number versus DMSO controls” value in experiment [1] (setting [29]) was “significantly lead to a reduction in colon CSC numbers”. Besides, the IC50 in [2] is 0.4 to 28 µM.
As for `C=CCNC1=C2C[C@@H](C)C[C@H](OC)[C@H](O)[C@@H](C)/C=C(\C)[C@H](OC(N)=O)[C@@H](OC)/C=C\C=C(/C)C(=O)NC(=CC1=O)C2=O` [17-AAG, 17-Allylamino-17-demethoxygeldanamycin], in [3], the “effect of combination with TRAIL on normalized viability” value is “synergistic effect; also recorded: rapidly (24 h) sensitized to TRAIL treatment”. The “sensitization of tumor cell lines to TRAIL” value in experiment [4] is recorded as “sensitizes colon cancer cell lines; also recorded: TRAIL resistance can be overcome”.
Take `CO[C@H]1/C=C\C=C(/C)C(=O)NC2=CC(=O)C(NCCN(C)C)=C(C[C@@H](C)C[C@H](OC)[C@H](O)[C@@H](C)/C=C(\C)[C@@H]1OC(N)=O)C2=O` [17-DMAG, 17-dimethylaminoethylamino-17-demethoxy-geldanamycin]: in experiment [5], the “sensitivity of the TRAIL-resistant colon CSC line to single agent” value is “sensitive”.
With `CC(C)(C)c1cc(C=C(C#N)C#N)cc(C(C)(C)C)c1O` [AG 17], in [1] (setting [29]), the “effect on colon CSC proliferation / number versus DMSO controls” value is given as “significantly lead to a reduction in colon CSC numbers”. Further, the IC50 in [6] was 500 nM.
Consider `COc1cc2ncc(-c3ccccc3)nc2cc1OC` [AG 1296], for which the results for the half-inhibitory concentration (IC50) in [7] and in [8] were 800 nM and 1000 nM, respectively. Also, in experiment [9], the inhibition entry is recorded as “c-kit (80% inhibition at 5 μM)”.
As to `Cc1ccc(S(=O)(=O)/C=C/C#N)cc1` [BAY 11-7082], in [10], the IC50 is 10 µM.
For the molecule `O=S(=O)(c1cccc2cnccc12)N1CCCNCC1` [HA-1077], in [1] (setting [29]), the “effect on colon CSC proliferation / number versus DMSO controls” value was “lead to significant proliferation”. Moreover, the Ki in experiment [11] is 1600 nM; in experiment [12], 36 µM.
As for `CN([C@@H](Cc1ccc(OS(=O)(=O)c2cccc3cnccc23)cc1)C(=O)N1CCN(c2ccccc2)CC1)S(=O)(=O)c1cccc2cnccc12` [KN-62], the Ki in experiment [13] was 900 nM.
For the molecule `COc1ccc(S(=O)(=O)N(CCO)c2ccccc2CN(C)C/C=C/c2ccc(Cl)cc2)cc1` [KN-93], the Ki in [14] is 370 nM.
Regarding `Cn1cc(C2=C(c3cn(CCCSC(=N)N)c4ccccc34)C(=O)NC2=O)c2ccccc21` [Ro-31-8220], the IC50 in [14] is 17 µM; in experiment [15], 2.8 nM; in [16], 6.8 nM; in experiment [17], 900 nM; in experiment [18], 10 nM. For the same molecule, the “effect on colon CSC proliferation / number versus DMSO controls” value in [1] (setting [29]) is reported as “significantly lead to a reduction in colon CSC numbers”.
As to `CC(=O)c1c(O)c(C)c(O)c(Cc2c(O)c3c(c(C(=O)/C=C/c4ccccc4)c2O)OC(C)(C)C=C3)c1O` [Rottlerin], the “effect on colon CSC proliferation / number versus DMSO controls” value in experiment [1] (setting [29]) is reported as “significantly lead to a reduction in colon CSC numbers”. In addition, the IC50 in experiment [19] is 3 to 6 µM.
In the case of `Oc1ccc(-c2nc(-c3ccncc3)c(-c3ccc(F)cc3)[nH]2)cc1` [SB 202190], the “effect on colon CSC proliferation / number versus DMSO controls” value in experiment [1] (setting [29]) was “lead to significant proliferation”. Also, the IC50 in [20] was 80 to 100 µM; in [21] it was 5.3 µM; in experiment [22], 30 to 42 µM.
With `Cc1ccc(NC(=O)c2cccc(N(C)C)c2)cc1NC(=O)c1ccc(O)cc1` [ZM 336372], the IC50 in experiment [23] and in [24] was 2000 nM throughout. Also, in experiment [1], the “effect on colon CSC proliferation / number versus DMSO controls” value is on record as “lead to significant proliferation”. For the same molecule, the “increased potency on c-Raf compared to B-Raf” value in experiment [25] is on record as “ten-fold”. Further, the “inhibition of many other protein kinases” value in [26] is given as “potency compared to B-Raf, but does not inhibit many other”.
Indirubin-3′-monoxime: in experiment [27], the IC50 was 100 nM.

B1: TRAIL: Tumor necrosis factor-related apoptosis-inducing ligand; recombinant human Killer TRAIL from Alexis (protein, UniProt P50591 1-281, looked up)
Tumor necrosis factor ligand …: MAMMEVQGGPSLGQTCVLIVIFTVLLQSLCVAVTYVYFTNELKQMQDKYSKSGIACFLKEDDSYWDPNDEESMNSPCWQVKWQLRQLVRKMILRTSEETISTVQEKQQNISPLVRERGPQRVAAHITGTRGRSNTLSSPNSKNEKALGRKINSWESSRSGHSFLSNLHLRNGELVIHEKGFYYIYSQTYFRFQEEIKENTKNDKQMVQYIYKYTSYPDPILLMKSARNSCWSKDAEYGLYSIYQGGIFELKENDRIFVSVTNEHLIDMDHEASFFGAFLVG
Take B1: in [28], the “resistance of colon CSCs to treatment alone” value is “One out of four colon CSCs is resistant”.

As usually defined, the IC50 is the midpoint of a concentration-inhibition curve. As usually defined, the Ki is the equilibrium dissociation constant of an inhibitor or competing ligand from its target.

The values are drawn from patent US20090275546A1, “Diagnostic tests and personalized treatment regimes for cancer stem cells” (Istituto Superiore di Sanita, priority 2008, published 2009).
